Source: patent publication US10925885B2, “Thyromimetics for the treatment of fatty liver diseases” (Metabasis Therapeutics, Inc., priority 2005, dated 2021)
“Also recorded” adds a separate entry of the source.

How the values were obtained:
liver triglycerides = experiment: Liver triglycerides, chronic exposure in ob/ob mice; format: in vivo; settings: for Liver Trigs: CMC suspension
Description: Sections of liver were removed and frozen. Liver triglycerides were analyzed following lipid extraction by the Bligh Dyer method (Bligh and Dyer, Can. J. Med. Sci. 37(8):911-7 (1959), incorporated herein by reference). Total triglycerides were analyzed in the liver extracts by an enzymatic assay (Thermo Electron Corporation). Total lipid was normalized to initial liver weight and triglyceride content was normalized to liver weight mGPDH activity was analyzed in isolated mitochondria using 2-(4-iodophenyl)-3-(4-nitrophenyl)-5-phenyl tetrazolium chloride as the terminal electron acceptor (Gardner R S, Analytical Biochemistry 59:272 (1974)). Commercially available GPDH was used in each assay as a standard (Sigma, St. Louis, Mo.).
The purpose of these studies was to compare the difference in efficacy to clear liver triglyceride content between Compound cis-13-1 and T3 in ob/ob mice.
(§1) Methods: ob/ob mice were maintained on a standard diet. Compound cis-13-1 was administered at doses of 3, 10 and 30 mg/kg/d orally in a CMC suspension. T3, 100 nmole/kg/d, was administered as an aqueous solution subcutaneously. Liver triglycerides were analyzed as described in example A. Epididymal fat pads were removed and weighed. Clinical chemistry analysis was performed by LabCorp (San Diego, Calif.).

[1] = Epididymal fat pad weight in ob/ob mice; format: in vivo; settings: for EFP weight: CMC suspension
Description: as §1

ALT = ALT levels (clinical chemistry) in ob/ob mice; format: in vivo; settings: 9 weeks of treatment, from 634 IU/L in the vehicle treated group
Description: as §1

hepatic steatosis [2] = experiment: Hepatic steatosis measured chemically and histologically in ob/ob mice; format: in vivo; settings: oral administration of cis-13-1
Description: as §1

hepatic steatosis [3] = experiment: Liver steatosis (H&E sections) in ZDF rats; format: in vivo, Zucker diabetic fatty (ZDF) rats; settings: oral, CMC suspension
Description: (§2) Methods: ZDF rats were maintained on a standard diet (5008). Compounds cis-13-1 or 18 were administered orally at the indicated doses using a CMC suspension. Liver steatosis was analyzed visually following H&E staining of paraffin embedded liver sections. TSH was measured using a rodent specific kit (Amersham Biosciences). At the end of the experiment, the left ventricle was cannulated with a high fidelity catheter-tip transducer (Millar) via the right carotid artery. Left ventricle pressure, its first derivative (LV dP/dt), lead I ECG, and heart rate triggered off the ECG waveform, were recorded.

TSH [4] = experiment: TSH in ZDF rats; format: in vivo, Zucker diabetic fatty (ZDF) rats; settings: 4 weeks of treatment
Description: as §2

[5] = Heart rate and cardiovascular parameters in ZDF rats; format: in vivo, Zucker diabetic fatty (ZDF) rats; settings: end of experiment
Description: as §2

hepatic steatosis [6] = experiment: Liver steatosis (H&E sections) in DIO mice; format: in vivo, diet induced obesity (DIO) mice; settings: DIO mice (60% Kcal from fat diet); 30 mg/kg/d orally, CMC suspension, 10 weeks
Description: The purpose of these studies was to compare the ability of Compound cis-13-1 to clear liver steatosis in diet induced obesity (DIO) mice. Methods: […] mice were maintained on a 60% Kcal from fat diet. Compound cis-13-1 was administered at doses of 30 mg/kg/d orally in a CMC suspension for 10 weeks. Liver steatosis was analyzed visually following H&E staining of paraffin embedded liver sections. TSH was measured using a rodent specific kit (Amersham Biosciences). Heart rates were measured using a Lead I ECG with the heart rate calculated from the ECG waveform.

mitochondria = experiment: Ultrastructure of mitochondria in DIO mice; format: in vivo, diet induced obesity (DIO) mice; settings: 30 mg/kg/d orally, 10 weeks
Description: (§3) Methods: C571316 mice were maintained on a 60% Kcal from fat diet. Compound cis-13-1 was administered at doses of 30 mg/kg/d orally in a CMC suspension for 10 weeks. Liver steatosis was analyzed visually following H&E staining of paraffin embedded liver sections. TSH was measured using a rodent specific kit (Amersham Biosciences). Heart rates were measured using a Lead I ECG with the heart rate calculated from the ECG waveform.

TSH [7] = experiment: TSH in DIO mice; format: in vivo, diet induced obesity (DIO) mice; settings: 10 weeks of treatment
Description: as §3

[8] = Heart rate (Lead I ECG) in DIO mice; format: in vivo, diet induced obesity (DIO) mice; settings: 30 mg/kg/d orally, 10 weeks
Description: as §3

CPT-1 = experiment: Liver gene expression (real-time PCR) in normal mice; format: in vivo; settings: normal C57Bl6 mice; 30 mg/kg/d orally, CMC suspension, 1 week; liver mRNA
Description: The purpose of these studies was to compare the ability of Compound cis-13-1 to change liver gene expression.
Methods: C57Bl6 mice were maintained on a normal rodent diet. Compound cis-13-1 was administered at doses of 30 mg/kg/d orally in a CMC suspension for 1 week. Changes in levels of mRNA for liver and heart genes are analyzed using reverse transcriptase followed by real-time PCR analysis. The analysis is performed using an iCycler instrument (Biorad) and appropriate primers by means of standard methodology (e.g., Schwab D A et al. Life Sciences 66:1683-94(2000)). The amounts of mRNA are normalized to an internal control, typically, cyclophilin.

Cc1cc(OC[P@@]2(=O)OCC[C@@H](c3cccc(Cl)c3)O2)cc(C)c1Cc1ccc(O)c(C(C)C)c1 [Compound cis-13-1]
Liver Trigs (liver triglycerides; 3 mg/kg/d orally): 87 ± 6 mg/g
Liver Trigs (liver triglycerides; 10 mg/kg/d orally): 66 ± 10 mg/g
Liver Trigs (liver triglycerides; 30 mg/kg/d orally): 59 ± 6 mg/g
Effect on liver (hepatic) triglyceride content, in words (liver triglycerides; cis-13-1 oral 3, 10, 30 mg/kg/d, T3 100 nmole/kg/d s.c.): decreased hepatic triglyceride content at 10 and 30 mg/kg/d
EFP weight ([1]; 3 mg/kg/d orally): 4.4 ± 0.1 g
EFP weight ([1]; 10 mg/kg/d orally): 4.7 ± 0.1 g
EFP weight ([1]; 30 mg/kg/d orally): 4.4 ± 0.1 g
Effect on epididymal fat pad (EFP) weight, in words ([1]; cis-13-1 oral, T3 100 nmole/kg/d s.c.): did not decrease epididymal fat pad (EFP) weight; also recorded: no effect on epididymal fat pad weight
Decrease in ALT levels (ALT): > 50%
Effect on hepatic steatosis measured chemically and histologically, in words (hepatic steatosis [2]): decreased hepatic steatosis
Effect on hepatic steatosis (visual, H&E), in words (hepatic steatosis [3]): visually decreased hepatic steatosis compared to control
Effect on TSH, in words (TSH [4]): No significant decreases in TSH
Heart rates and other cardiovascular parameters, change from vehicle, in words [5]: no significant changes from vehicle in any parameter
Effect on hepatic steatosis (visual, H&E), in words (hepatic steatosis [6]): decreased hepatic steatosis
Ultrastructure of mitochondria, in words (mitochondria): no abnormalities in the ultrastructure of mitochondria
Effect on TSH, in words (TSH [7]): No significant decreases in TSH
Change in heart rate, in words [8]: no significant change in heart rate
Increase in CPT-1 expression (CPT-1): 3.5 fold
